Reference: article PMC11172314, “Towards Enhanced Tunability of Aqueous Biphasic Systems: Furthering the Grasp of Fluorinated Ionic Liquids in the Purification of Proteins” (International Journal of Molecular Sciences, 2024)
Where two headings read alike, the source gives them in different places. Values belong to the molecule of their own block, whether it stands above or below them.

Assays:
FITC-Lys (lysozyme) = target: T1, FITC-Lys (lysozyme) (Gallus gallus, UniProt P00698); test: Microscale thermophoresis (MST) binding of ABS phase-forming components to FITC-labeled lysozyme; design: species or system chicken; details: FITC-Lys 0.41 μM, 25 °C
T1 construct: Lyophilized lysozyme from chicken egg white, ≥90% purity; purchased Millipore (Darmstadt, Germany); host or cells: chicken egg white (natural source)
T1 sequence (P00698 19-147): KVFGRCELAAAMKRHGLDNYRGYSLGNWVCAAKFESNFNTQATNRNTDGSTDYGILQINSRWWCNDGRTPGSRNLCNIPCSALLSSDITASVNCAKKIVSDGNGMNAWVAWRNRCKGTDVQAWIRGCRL
Procedure: Usually, in the labeling process, the position of dye is statistically distributed, and one amine per protein is labeled. […] The four ABS phase-forming components, [ N1112(OH) ][H2PO4] […] (FILs), and [C4C1Im][CF3SO3] […] In each run of MST, a maximum concentration of ligand was selected and consecutively diluted in sixteen capillaries.
Binding studies were conducted through microscale thermophoresis measurements of dye-labeled lysozyme. […] MST tests were conducted in a monolith NT.115 (blue/red) in accordance with the Nano Temper Technologies methodology. Medium MST power and 20% LED power (nano-blue) were set as the instrument’s default settings. For each and every MST measurement, PBS buffer was used. […] For each ligand, a series of 16 1:1 dilutions was prepared using the same buffer, varying the starting ligand concentration from 15 to 400 mM. MST traces were recorded using the standard parameters: 5 s MST power off, 30 s MST power on, and 5 s MST power off. Three independently conducted pipetted experiments’ data were examined using NanoTemper Technologies’ MO. Affinity Analysis program, version 2.3.

lysozyme (Lys) [1] = target: T2, lysozyme (Lys) (Gallus gallus, UniProt P00698); test: DSC thermal stability (Tm, ΔH) of lysozyme in water, component solutions and ABS phases; design: species or system chicken; details: for Lys Tm / Lys ∆H: 1.0 mg/mL Lys
T2 construct: Lyophilized lysozyme from chicken egg white, ≥90% purity; purchased Millipore (Darmstadt, Germany); host or cells: chicken egg white (natural source)
T2 sequence (P00698 19-147): as above
From the text: Differential scanning calorimetry (DSC) measurements (Section 3) were used to determine the melting temperature ( Tm ) and enthalpy ( Δ H) of lysozyme, at which both the folded and unfolded states coexist at equilibrium. DSC outputs, thermal transitions at the nanoscale level, allow to analyze alterations on proteins structure and stability, providing sharp perceptions of the factors affecting stability, as well as of the folding and unfolding processes. […] (DSC curve depicted in Figure S16 of Supplementary Materials).
FIL (BP#8, BP#10, BP#11, and BP#12). […] For the system based on [C4C1Im][CF3SO3]
The thermal stability of lysozyme was analyzed in water, ABS phase-forming compounds aqueous solutions, and partition ABS phases. […] Partition lysozyme on each phase from the prepared biphasic points as well as recovered protein from the FIL-rich phase were also addressed for a selection of studied systems listed in Table 1. We acquired thermograms using a TA^TM Nano DSC from TA Instruments. All scans were conducted in a 300 μ L capillary cell through a temperature ramp from 20 to 90 °C at a heating rate of 1 °C/min and 3 atm pressure. All samples were degassed for 7 min at 20 °C, with the exception of FIL-containing samples owing to their surfactant properties. After subtracting the polynomial fit baselines, raw thermogram curve data were fitted with the TwoStateScaled model using NanoAnalyze TA Instruments software, version 3.12, to determine the protein thermal transition temperatures in each sample. During nanoDSC scans, Δ H and Δ S were obtained and utilized to determine Δ G ( Δ G = Δ H − T Δ S).

lysozyme (Lys) [2] = target: T2, lysozyme (Lys); test: Far-UV CD secondary structure content of lysozyme (K2D deconvolution); design: species or system chicken; Lys α-helix content / Lys β-sheet content / Lys random coil content / α-helix content / β-sheet content / Random coil content: unit not given here; details: 25 °C; for Lys random coil content / Lys α-helix content / Lys β-sheet content: 1.0 mg/ml Lys
Procedure: Circular dichroism (CD) spectroscopy is broadly applied to assess the secondary structure of proteins because different structural elements have characteristic CD spectra. […] For [C4C1Im][CF3SO3] (mere fluoro-containing IL), the structural content was estimated for the concentration range (0.1–200 mM). […] FIL and [ N1112(OH) ][H2PO4] […] No substantial protein structural modification upon the ABS phase-forming component addition was verified.
Circular dichroism (CD) spectra were collected in a 10 mm quartz cuvette and a Chirascan spectropolarimeter (Applied Photophysics, Leatherhead, UK) at room temperature. All CD spectra were recorded in far-UV 190 to 260 nm at scan rates of 50 nm/min, 4 accumulations, and a response time of 3 s. Each CD experiment involved the acquisition and combination of two distinct duplicates. […] Spectral deconvolution was carried out with Dichroweb using the K2D algorithm.

[3] = design: method as in earlier work; details: aqueous solution, 25 °C, conductometry; ref 21 (supplement ref 1); cited from earlier work
lysozyme (Lys) [4] = target: T2, lysozyme (Lys); test: Intrinsic (tryptophan) fluorescence of lysozyme; design: species or system chicken; details: 0.2 mg/mL Lys, excitation 295 nm, component 0.1–800 mM, 25 °C
From the text: (FIL), [C4C1Im][CF3SO3] (mere fluoro-containing IL), and [ N1112(OH) ][H2PO4] (globular protein stabilizer). […] Even though large changes in protein conformation can modify the intensity of tyrosine and phenylalanine fluorescence signals, their low extinction coefficients and quantum yields, as well as their relative lower sensitivity to environmental changes, make them a less appealing candidate. Tryptophan is frequently found concealed in the hydrophobic core of proteins due to its aromatic nature. […] The tryptophan release energy is particularly sensitive to the polarity (and dynamics) of the environment because the excited-state dipole moment is quite large. Reactions to denaturation, substrate binding, subunit association, and conformational transitions create variations in the tryptophan emission spectra. The spectrum shift generally known as blue shift, a shift of the maximum emission towards smaller wavelengths, denotes that the aromatic residue is buried in the native structure of the protein [67]. […] Furthermore, the amount of exposure of the fluorophores to the solvent is associated with the increase or decrease in the intensity of the emission spectrum. […] [C4C1Im][CF3SO3] and [ N1112(OH) ][H2PO4] […] Variations in lysozyme spectra are caused by ligand-induced changes in the microenvironment of tryptophan residues, either by shifting the maximum peak wavelength (blue or red shift) or by altering peak intensities. These changes can be used as a measure of the effect of the ABS phase-forming components on protein folding and unfolding.
Intrinsic fluorescence spectroscopy measurements of lysozyme’s tryptophan residues were carried out on a Spex Horiba Jobyin Yvon spectrofluorometer (HORIBA Jobin Yvon, France) using a 10 mm path length quartz cuvette. […] The excitation and emission slit widths of 2 nm were used for all the measurements. Maximum fluorescence values were attained as the average of three measurements.

lysozyme (Lys) [5] = target: T2, lysozyme (Lys); design: method as in PMID 28478279, PMID 17406547; details: cited from earlier work
[6] = cited from earlier work
[7] = max. conc. (first capillary) in monomer range: below 1st CAC for FILs, ]0, 100] mM for non-aggregating ligands

Molecule: C[N+](C)(C)CCO.O=S(=O)([O-])C(F)(F)C(F)(F)C(F)(F)C(F)(F)F [[N1112(OH) ][C4F9SO3]]
Kd (FITC-Lys (lysozyme); [7]): no binding detected
Lys Tm (lysozyme (Lys) [1]; 0.1 mM component in water): 77.15 °C
Lys ∆H (lysozyme (Lys) [1]; 0.1 mM component in water): 136.3 kcal/mol
Lys Tm (lysozyme (Lys) [1]; 1 mM component in water): 76.65 °C
Lys ∆H (lysozyme (Lys) [1]; 1 mM component in water): 127.7 kcal/mol
Lys Tm (lysozyme (Lys) [1]; 5 mM component in water): 75.19 °C
Lys ∆H (lysozyme (Lys) [1]; 5 mM component in water): 123 kcal/mol
Lys Tm (lysozyme (Lys) [1]; 10 mM component in water): 74.28 °C
Lys ∆H (lysozyme (Lys) [1]; 10 mM component in water): 134 kcal/mol
Lys Tm (lysozyme (Lys) [1]; 25 mM component in water, several transitions listed singly, listed as [N1112(OH)][C4F9SO3]): 83.98 °C
Lys random coil content (lysozyme (Lys) [2]; 0.1 mM component): 0.57
Lys α-helix content (lysozyme (Lys) [2]; 0.1 mM component): 0.28
Lys β-sheet content (lysozyme (Lys) [2]; 0.1 mM component): 0.15
Lys random coil content (lysozyme (Lys) [2]; 1 mM component): 0.58
Lys α-helix content (lysozyme (Lys) [2]; 1 mM component): 0.28
Lys β-sheet content (lysozyme (Lys) [2]; 1 mM component): 0.14
Lys random coil content (lysozyme (Lys) [2]; 5 mM component): 0.56
Lys α-helix content (lysozyme (Lys) [2]; 5 mM component): 0.25
Lys β-sheet content (lysozyme (Lys) [2]; 5 mM component): 0.19
Lys random coil content (lysozyme (Lys) [2]; 25 mM component): 0.57
Lys α-helix content (lysozyme (Lys) [2]; 25 mM component): 0.24
Lys β-sheet content (lysozyme (Lys) [2]; 25 mM component): 0.2
1st CAC [3]: 16.02 mM
2nd CAC [3]: 35.17 mM
3rd CAC [3]: 185.65 mM

Molecule: O=S(=O)(O)C(F)(F)C(F)(F)C(F)(F)C(F)(F)F [[N1112(OH) ][C4F9SO3]]
Kd (FITC-Lys (lysozyme); max. conc. (first capillary) in 1st CAC range ([14.4, 34.48[ or [16.02, 35.17[ mM), read-out: Kd): 6.05 ± 1.67 mM
Kd (FITC-Lys (lysozyme); max. conc. (first capillary) in 2nd CAC range ([34.48, 76.54[ or [35.17, 185.65[ mM), read-out: Kd): 6.25 ± 1.47 mM

Molecule: C[N+](C)(C)CCO.C[N+](C)(C)CCO.O=P([O-])(O)O.O=P([O-])(O)O [[N1112(OH) ][H2PO4], Choline ((2-hydroxyethyl)trimethylammonium) dihydrogen phosphate]
Kd (FITC-Lys (lysozyme); [7]): no binding detected
Lys Tm (lysozyme (Lys) [1]; 0.1 mM component in water): 77.10 °C
Lys ∆H (lysozyme (Lys) [1]; 0.1 mM component in water): 134.8 kcal/mol
Lys Tm (lysozyme (Lys) [1]; 1 mM component in water): 77.11 °C
Lys ∆H (lysozyme (Lys) [1]; 1 mM component in water): 132.5 kcal/mol
Lys Tm (lysozyme (Lys) [1]; 5 mM component in water): 76.70 °C
Lys ∆H (lysozyme (Lys) [1]; 5 mM component in water): 142.8 kcal/mol
Lys Tm (lysozyme (Lys) [1]; 10 mM component in water): 77.06 °C
Lys ∆H (lysozyme (Lys) [1]; 10 mM component in water): 137.8 kcal/mol
Lys random coil content (lysozyme (Lys) [2]; 0.1 mM component): 0.56
Lys α-helix content (lysozyme (Lys) [2]; 0.1 mM component): 0.29
Lys β-sheet content (lysozyme (Lys) [2]; 0.1 mM component): 0.15
Lys random coil content (lysozyme (Lys) [2]; 1 mM component): 0.58
Lys α-helix content (lysozyme (Lys) [2]; 1 mM component): 0.28
Lys β-sheet content (lysozyme (Lys) [2]; 1 mM component): 0.14
Lys random coil content (lysozyme (Lys) [2]; 5 mM component): 0.56
Lys α-helix content (lysozyme (Lys) [2]; 5 mM component): 0.25
Lys β-sheet content (lysozyme (Lys) [2]; 5 mM component): 0.18
Lys random coil content (lysozyme (Lys) [2]; 25 mM component): 0.57
Lys α-helix content (lysozyme (Lys) [2]; 25 mM component): 0.24
Lys β-sheet content (lysozyme (Lys) [2]; 25 mM component): 0.2
Lys fluorescence emission intensity with increasing component concentration (lysozyme (Lys) [4]): reduction in fluorescence emission intensity
Lys maximum emission wavelength with increasing component concentration (lysozyme (Lys) [4]): remains constant

α-helix, secondary structure prediction (lysozyme (Lys) [2]; 1.0 mg/mL Lys in water): 29%
β-strand, secondary structure prediction (lysozyme (Lys) [2]; 1.0 mg/mL Lys in water): 14%
Random coil content (lysozyme (Lys) [2]; 1.0 mg/ml Lys in water (0 mM)): 0.57
α-helix content (lysozyme (Lys) [2]; 1.0 mg/ml Lys in water (0 mM)): 0.29
β-sheet content (lysozyme (Lys) [2]; 1.0 mg/ml Lys in water (0 mM)): 0.14
Molecule: Lys: lysozyme from chicken egg white (muramidase, EC 3.2.1.17), 14 kDa globular protein used as protein model
Tm (lysozyme (Lys) [1]; 0.5 mg/ml Lys in water): 69.26±0.031 °C
∆H (lysozyme (Lys) [1]; 1.0 mg/mL Lys in water): 118 kcal/mol
Tm (lysozyme (Lys) [1]; 3.0 mg/ml Lys in water): 73.85±0.005 °C
β-strand, analysis based on various methods (lysozyme (Lys) [5]): ≈ 19%
isoelectric point [6]: around 11.0
